# Source: patent US7273716B2 (priority 2003, dated 2007)
# Tests used:
# GS-7340 ester hydrolase = molecular target: T1, GS-7340 ester hydrolase (Homo sapiens, UniProt P10619); test: biochemical
# T1 construct: Fresh human PBMCs are obtained from patients undergoing leukophoresis; from tissue; host or cells: human peripheral blood mononuclear cells (PBMC extract, purified by Q15, Butyl Sepharose HIC and Con A chromatography)
# T1 sequence (P10619 29-326 limits assumed): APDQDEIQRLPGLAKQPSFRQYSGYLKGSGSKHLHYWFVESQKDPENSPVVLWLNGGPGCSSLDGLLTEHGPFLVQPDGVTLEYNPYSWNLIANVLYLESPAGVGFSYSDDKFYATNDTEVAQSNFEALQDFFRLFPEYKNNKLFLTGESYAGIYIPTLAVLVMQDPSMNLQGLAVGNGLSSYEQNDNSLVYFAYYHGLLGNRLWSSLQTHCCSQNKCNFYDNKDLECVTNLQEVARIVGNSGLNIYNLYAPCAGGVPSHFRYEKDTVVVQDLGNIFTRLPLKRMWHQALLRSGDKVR
# T1 sequence (P10619 327-480 limits assumed): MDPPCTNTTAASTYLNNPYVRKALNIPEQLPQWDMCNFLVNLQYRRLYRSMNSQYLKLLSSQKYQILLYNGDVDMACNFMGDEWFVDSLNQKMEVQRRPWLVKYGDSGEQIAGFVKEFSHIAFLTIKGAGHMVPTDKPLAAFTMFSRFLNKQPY
# [1] = system: Cat A+ and Cat A- human primary fibroblasts; test: Metabolism of acyclic nucleotide phosphonate prodrugs in Cat A+/- fibroblasts; details: 10 μM 14C-labeled Compound K, 37° C., 15-240 min
SMILES,IC50 (GS-7340 ester hydrolase),concentration of metabolites in Cat A+ control fibroblasts relative to Cat A- (galactosialidosis) fibroblasts [1]
"O=c1oc(Cl)c(Cl)c2ccccc12 [3,4-dichloroisocoumarin, 3,4 dichloroisocoumarin]",500 nM,
C=C(OC(C)C)[C@H](C)N[P@](=O)(CO[C@H](C)Cn1cnc2c(C)ncnc21)Oc1ccccc1 [Compound K],,6-9 times
